Measurements as given in patent publication US20090221690A1, “Pharmaceutical Composition for the Prevention/Treatment of Bone Disorders and a Process for the Preparation Thereof” (COUNCIL OF SCIENTIFIC AND INDUSTRIAL RESEARCH, priority 2006, published 2009).

Legend:
Type in all cases: cell-based
[1] = test system: Ishikawa (human uterine glandular epithelial carcinoma) cell line; assay: MTT proliferation assay in Ishikawa cell line; conditions: 10 nM and 1 μM; Ishikawa cells; FIG. 2
[2] = test system: MCF-7 (human cancer breast) cell line; assay: MTT proliferation assay in MCF-7 cell line; conditions: 10 nM and 1 μM; MCF-7 cells; FIG. 2
[3] = test system: PTH-induced resorption of ^45Ca from chick fetal bones in culture; assay: Chick fetal bone culture assay, bone antiresorbing activity; conditions: 100 μM; vehicle 1.03; T/C close to unity = no antiresorbing activity
Experimental: A slight modification of the method of Raisz (Nature 197: 1015-1016, 1963) was employed. Femur bones are isolated from chick embryos on day 11 post-ovulation and cleared of adhering connective tissue by carefully rotating each bone on dry Whatman (I) filter paper under stereomicroscope. Each femur bone is then placed in a drop of PBS before culturing in BGJb medium (pH 7.3) supplemented with penicillin (0.075 mg/ml), streptomycin (0.05 mg/ml), HEPES (2.382 mg/ml) and BSA (1 mg/ml), transferred to BGJb culture medium containing ^45CaCl2 (0.5 μCi/300 μl culture medium) and incubated for 2 h at 37° C. under 5% CO2 in air. Labeled femur bones are then washed with BGJb medium for 24 h at 37° C. under 5% CO2 in air. An aliquot of the medium was withdrawn for the measurement of ^45Ca released into the medium from bone during the first 24 h. […] Radioactivity due to ^45Ca in the spent medium collected at 24, 48 and 96 h of culture and HCl extract at 96 h of culture is quantified by Liquid Scintillation Spectrophotometer in 10 ml of the scintillation fluid (ACS II scintillation cocktail, Amersham Biosciences, UK). […] Bone anti-resorbing activity is expressed as percentage of ^45Ca released into the culture medium and the effect of the agent of invention as percent of the corresponding contra-lateral control or T/C ratio as shown below. […]

C[C@]12CC[C@@H]3c4ccc(O)cc4CC[C@H]3[C@@H]1CC[C@@H]2O [Estradiol-17β]
proliferation [1]: marked increase in proliferation | proliferation [2]: marked increase in proliferation | T/C ratio (PTH-induced resorption of ^45Ca) [3]: 0.37
